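The compound was tested at five concentrations on cells cultured in 96-well plates, with a 48-hour exposure period. GI50 marks 50% less growth. TGI marks complete inhibition of growth.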
How the values were obtained:
Experiment in all cases: inhibition of tumour cell growth, NCI panel, 48 h
A498 renal = system: A498 renal
A549 NSCLC = system: A549 NSCLC
DLD-1 colon = system: DLD-1 colon
HL-60(TB) leukemia = system: HL-60(TB) leukemia
HT29 colon = system: HT29 colon
M19-MEL melanoma = system: M19-MEL melanoma
NCI-H460 lung = system: NCI-H460 lung
SK-MEL-2 melanoma = system: SK-MEL-2 melanoma
SNB-75 CNS = system: SNB-75 CNS
DMS 273 small cell lung = system: DMS 273 small cell lung

| Structure (SMILES) | TGI (A498 renal) | TGI (A549 NSCLC) | TGI (DLD-1 colon) | TGI (HL-60(TB) leukemia) | TGI (HT29 colon) | TGI (M19-MEL melanoma) | TGI (NCI-H460 lung) | TGI (SK-MEL-2 melanoma) | TGI (SNB-75 CNS) | TGI (DMS 273 small cell lung) | GI50 (A498 renal) | GI50 (A549 NSCLC) | GI50 (HL-60(TB) leukemia) | GI50 (HT29 colon) | GI50 (NCI-H460 lung) | GI50 (SK-MEL-2 melanoma) | GI50 (SNB-75 CNS) |
| --- | --- | --- | --- | --- | --- | --- | --- | --- | --- | --- | --- | --- | --- | --- | --- | --- | --- |
| OCC(O)CNc1ccnc2cc(Cl)ccc12 (centres undefined) | > 100 µM | > 100 µM | > 100 µM | > 100 µM | > 100 µM | > 100 µM | > 100 µM | > 100 µM | > 100 µM |  |  |  |  |  |  |  |  |
| CCOC(=O)/C(=C/c1cccc(C#N)c1)N(CC)CC | > 100 µM | > 100 µM | > 100 µM | > 100 µM | > 100 µM | > 100 µM | > 100 µM | > 100 µM | > 100 µM |  |  |  |  |  |  |  |  |
| CC1=C(C(=O)Nc2ccccc2)C(c2ccc(C3C(C(=O)Nc4ccccc4)=C(C)NC(C)=C3C(=O)Nc3ccccc3)cc2)C(C(=O)Nc2ccccc2)=C(C)N1 | 24 µM | 21.8 µM | 8.15 µM | 7.21 µM | 3.77 µM | 22 µM | 8.29 µM | 5.06 µM | 23.7 µM | 7.24 µM |  |  |  |  |  |  |  |
| COc1cc(C2C(C(=O)Nc3cc(F)c(F)cc3F)=C(C)NC(C)=C2C(=O)Nc2cc(F)c(F)cc2F)ccc1O | 55.3 µM | 95.8 µM | > 100 µM | 40.7 µM | > 100 µM | 77.3 µM | > 100 µM | 79.1 µM | 25.8 µM |  |  |  |  |  |  |  |  |
| CC(=O)OCCOCNC(=S)N/N=C/c1ccc(Br)s1 | > 100 µM | > 100 µM | > 100 µM | > 40.2 µM | > 100 µM | > 100 µM | > 100 µM | > 100 µM | > 100 µM | > 100 µM |  |  |  |  |  |  |  |
| Cc1cccc(N=C2NC(=O)C(CC(=O)Nc3cccc(C)c3C)S2)c1 (centres undefined) |  | > 100 µM | > 100 µM | > 100 µM | > 100 µM | > 100 µM | > 100 µM | > 100 µM | > 100 µM |  |  |  |  |  |  |  |  |
| COC(=O)c1cccc2cccc(C(=O)Nc3ccc(Cl)cc3)c12 | > 100 µM | > 100 µM | > 62.5 µM | 22.1 µM | > 100 µM | > 100 µM | > 100 µM | > 100 µM | > 100 µM | 22.2 µM |  |  |  |  |  |  |  |
| Oc1ccc(Br)cc1C=Nc1ccc(N=Cc2cc(Br)ccc2O)cc1 | > 100 µM | > 100 µM | > 100 µM | > 100 µM | > 100 µM |  | > 100 µM | > 100 µM | > 100 µM |  |  |  |  |  |  |  |  |
| O=C1C(=O)N(c2cc(Cl)ccc2Cl)C(=O)C(=O)C1c1nc2ccccc2o1 | > 100 µM | > 100 µM | > 100 µM | > 100 µM | > 100 µM | > 100 µM | > 100 µM | > 100 µM | > 100 µM | > 100 µM |  |  |  |  |  |  |  |
| N#CC(C(=O)CCC(=O)Nc1cccc(C(F)(F)F)c1)c1ccc(Cl)cc1 (centres undefined) | > 100 µM | > 100 µM | > 100 µM | > 100 µM | > 100 µM | > 100 µM | > 100 µM |  |  | > 100 µM |  |  |  |  |  |  |  |
| CCN(CC)CCNC(=O)c1ccc(C)c(OCc2ccccc2)c1[N+](=O)[O-] | > 82.8 µM | > 100 µM | > 100 µM | 53.3 µM | 38.7 µM | 32.7 µM | > 100 µM | 41 µM | 67.9 µM | 46.9 µM |  |  |  |  |  |  |  |
| COC(=O)/C(=C\c1ccc(N(CCC#N)CCC#N)cc1)NC(=O)c1cc([N+](=O)[O-])ccc1Cl | > 100 µM | > 100 µM | > 100 µM |  | > 100 µM | > 100 µM | > 100 µM | > 100 µM | > 100 µM | > 100 µM |  |  |  |  |  |  |  |
| CC1=C(c2cc(C(=O)Nc3ccc(Cl)cc3)nc(=S)[nH]2)Sc2ccccc2N1 | > 100 µM | > 100 µM | > 100 µM | > 100 µM | > 100 µM | > 100 µM | > 100 µM | > 100 µM | > 100 µM | > 100 µM |  |  |  |  |  |  |  |
| OCCNCCOc1ccc(/C(=C(/Cl)c2ccccc2)c2ccccc2)cc1 |  | 12.8 µM | 27.4 µM | 4.52 µM | 10 µM | 23.5 µM | 18.2 µM | 26.4 µM | 8.46 µM |  |  |  |  |  |  |  |  |
| C=CCn1c2c(sc1=S)C(S)N=CN2 (centres undefined) | > 100 µM | > 100 µM | > 100 µM | > 100 µM | > 100 µM | > 100 µM | > 100 µM | > 100 µM | > 100 µM | > 100 µM |  |  |  |  |  |  |  |
| CCOC(=O)Cn1c(=O)n(C)c(=O)c2c1ncn2Cc1ccccc1 | > 100 µM | > 100 µM | > 100 µM |  | > 100 µM | > 100 µM | > 100 µM | > 100 µM | > 100 µM | > 100 µM |  |  |  |  |  |  |  |
| Cc1cccc(C(C)C)c1NC(=O)C(=O)C(C(=O)c1ccccc1F)C1OC(=O)c2ccccc21 (centres undefined) | 45.1 µM | > 100 µM | 30.8 µM |  | 71.7 µM | 26.4 µM | 83.9 µM | 30.1 µM | 45.9 µM | 44.3 µM |  |  |  |  |  |  |  |
| Cc1cc(C(C)(C)C)cc(Cc2cc(C(C)(C)C)cc(Cc3cc(C(C)(C)C)cc(C)c3O)c2O)c1O | 45.1 µM | 18.7 µM | 18.5 µM | 12.5 µM | 24 µM | 11.1 µM | 21.8 µM | 22.3 µM | 15.5 µM | 22.8 µM |  |  |  |  |  |  |  |
| O=C(N/N=C/c1c(Cl)cccc1Cl)c1ccc(C(F)(F)F)nc1Nc1cccc(C(F)(F)F)c1 | 2.39 µM | > 36.1 µM |  |  | > 100 µM |  | 6.13 µM | 8.19 µM | 54.6 µM |  | 0.603 µM | 1.54 µM | 0.552 µM | 1.24 µM | 0.419 µM | 1.87 µM | 2.46 µM |
| c1ccc(CSc2nc3ccccc3nc2-c2cccs2)cc1 |  | > 100 µM | > 100 µM | > 100 µM | > 100 µM | > 100 µM | > 100 µM | > 100 µM | > 100 µM | > 100 µM |  |  |  |  |  |  |  |
| COCOc1ccc(C2(O)Oc3cc(OCOC)ccc3C2C)c(O)c1 (centres undefined) | 28.8 µM | 31.9 µM |  | 44 µM | 32.2 µM |  | 27.1 µM | 32.7 µM | 30.4 µM |  |  |  |  |  |  |  |  |
| COC1=C(Br)C(=O)c2nc(C)ccc2C1=O | 36.4 µM | 38.5 µM | 22.2 µM |  | 34.9 µM | 27.8 µM | 31.7 µM | 30.1 µM | 33.8 µM | 31.8 µM |  |  |  |  |  |  |  |

Source: PubChem BioAssay (NCI)
